Test results from US20250109165A1, “CYCLOPHILIN INHIBITORS AND USES THEREOF” (The Broad Institute, Inc., priority 2022, published 2025).

What was measured:
CypD [1] = target: T1, CypD (Homo sapiens, UniProt P30405); assay: Chymotrypsin coupled prolyl-isomerase assay; format: biochemical
T1 construct: PPIF (UniProtKB Entry P30405: res 45-207); made in house; host or cells: E. coli BL21(DE3)
Description: (§1) IC50 values were calculated to be the value at which 50% inhibition was achieved on each compound's non-linear regression fitted curve.

[2] = target: T2, human carboxylesterase (CES1) (Homo sapiens, UniProt P23141); assay: In vitro esterase activity on ester pro-drug Cy5 derivatives; format: in vitro ADME; settings: 0.25 μM CES1, 37° C., 8 hours
T2 sequence (P23141 18-567): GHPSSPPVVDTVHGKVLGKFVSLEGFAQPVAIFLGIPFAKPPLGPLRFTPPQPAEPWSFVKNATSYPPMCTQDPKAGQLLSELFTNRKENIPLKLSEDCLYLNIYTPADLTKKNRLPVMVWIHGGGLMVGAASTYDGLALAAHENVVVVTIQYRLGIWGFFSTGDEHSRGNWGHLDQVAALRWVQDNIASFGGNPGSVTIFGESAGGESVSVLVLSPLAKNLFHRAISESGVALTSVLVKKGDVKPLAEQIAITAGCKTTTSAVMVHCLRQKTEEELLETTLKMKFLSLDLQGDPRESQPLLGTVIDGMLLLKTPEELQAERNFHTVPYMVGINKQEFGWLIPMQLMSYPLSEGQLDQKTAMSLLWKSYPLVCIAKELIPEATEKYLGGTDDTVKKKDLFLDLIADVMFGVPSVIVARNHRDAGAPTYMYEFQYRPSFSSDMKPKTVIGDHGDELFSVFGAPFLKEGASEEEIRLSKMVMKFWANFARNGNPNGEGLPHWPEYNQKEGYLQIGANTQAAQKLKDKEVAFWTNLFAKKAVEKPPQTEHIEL
Description: In vitro esterase activity on ester pro-drug Cy5 derivatives of CypD inhibitors. Into PCR tubes, ester compound (6 μM) and either buffer only, CES1 (0.25 μM), or CES2 (0.25 μM) was diluted in 100 mM Tris-HCl buffer, pH 7.4, with a final DMSO concentration of 1%. Samples were maintained on a PCR block at 37° C. for 8 hours. After incubation, samples were diluted with 20 μL acetonitrile and analyzed by LC-MS at Harvard's Center for Mass Spectroscopy. Di-ester, mono-ester, and di-acid abundances were quantified by total ion count of the primary isotope, and the three compounds were summed and each one expressed as a fraction of the total sum.

HeLa cells = assay: Fluorescence microscopy on HeLa cells; format: cell-based, human; settings: Cy5 labeled compound 6 μM
Description: Fluorescence microscopy on Hela cells. Into 96 well black, clear bottom TC treated plates, cells were seeded in Dulbecco's Modified Eagle Medium (DMEM) supplemented with 10% fetal bovine serum 24 hours prior at a density where wells were ˜80% confluent at time of experiment. Media was removed and cells were then stained with 50 μL of mixture containing Cy5 labeled compound (6 μM) in Kreb's ringer solution HEPES buffered pH 7.2 (KRB), for 1 hour at 37° C. Then, 50 μL Hoechst 33342 (8 μM) and Mitotracker Green FM (0.1 μM) in KRB was added directly to wells containing cells and incubated for 15 minutes at 37° C. Media was removed and cells were washed two times with 100 μL KRB. Cells were then kept adherent to the wells in 100 μL KRB for imaging. Fluorescence microscopy was conducted on an Opera Phenix Plus High-Content Screening System, using Alexa 488, Alexa 647, and Hoescht 33342 channels. Images were analyzed using Harmony 4.9.

CypD K118E/R124A = target: T3, CypD K118E/R124A (Homo sapiens, UniProt P30405, K118E/R124A); assay: Chymotrypsin coupled prolyl-isomerase assay; format: biochemical
T3 construct: made in house; host or cells: E. coli BL21(DE3)
Description: as §1

CypD [3] = assay: Chymotrypsin coupled prolyl-isomerase assay; format: biochemical, human; settings: CypD mutants K118E and R124A
Description: as §1

CypD R124A = target: T4, CypD R124A (Homo sapiens, UniProt P30405, R124A); assay: Chymotrypsin coupled prolyl-isomerase assay; format: biochemical; settings: CypD R124A mutant; read-out: IC50^CypDR124A
T4 construct: made in house; host or cells: E. coli BL21(DE3)
Description: as §1

CypD K118E = target: T5, CypD K118E (Homo sapiens, UniProt P30405, K118E); assay: Chymotrypsin coupled prolyl-isomerase assay; format: biochemical; settings: CypD K118E mutant; read-out: IC50^CypDK118E
T5 construct: made in house; host or cells: E. coli BL21(DE3)
Description: as §1

cyclophilins = assay: Prolyl-isomerase inhibition screen on cyclophilins and cyclophilin mutants; format: biochemical, human
Description: as §1

T3 sequence (P30405 45-207 K118E/R124A): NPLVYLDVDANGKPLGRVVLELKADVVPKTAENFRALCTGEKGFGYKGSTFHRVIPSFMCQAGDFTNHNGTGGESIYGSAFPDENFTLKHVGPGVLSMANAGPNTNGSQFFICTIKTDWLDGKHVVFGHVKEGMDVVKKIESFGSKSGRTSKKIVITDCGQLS
T1 sequence (P30405 45-207): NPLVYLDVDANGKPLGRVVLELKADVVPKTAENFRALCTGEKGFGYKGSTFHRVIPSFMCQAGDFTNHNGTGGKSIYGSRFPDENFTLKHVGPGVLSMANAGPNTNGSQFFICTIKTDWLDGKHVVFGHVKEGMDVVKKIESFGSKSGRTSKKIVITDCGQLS
T4 sequence (P30405 45-207 R124A): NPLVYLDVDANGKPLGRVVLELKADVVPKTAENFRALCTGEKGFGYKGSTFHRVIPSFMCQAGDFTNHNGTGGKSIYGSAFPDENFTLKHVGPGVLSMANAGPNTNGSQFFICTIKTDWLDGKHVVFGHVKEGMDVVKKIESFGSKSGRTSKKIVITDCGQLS
T5 sequence (P30405 45-207 K118E): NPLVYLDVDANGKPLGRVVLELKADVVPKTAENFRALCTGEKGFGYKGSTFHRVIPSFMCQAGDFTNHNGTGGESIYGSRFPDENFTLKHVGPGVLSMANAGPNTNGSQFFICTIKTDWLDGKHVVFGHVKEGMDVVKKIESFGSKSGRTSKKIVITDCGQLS

| CypD prolyl-isomerase inhibition (in words) (CypD [1]) | SMILES | hydrolysis of ester prodrug by CES1 [2] | mitochondrial localization (overlap with Mitotracker Green) (HeLa cells) | plasma membrane / mammalian cell permeability (HeLa cells) | preference for CypD K118E/R124A over the nearest cyclophilin, PPWD1 (CypD K118E/R124A) | improvement compared to wild-type CypD (CypD K118E/R124A; CypD K118E/R124A) | IC50 (CypD K118E/R124A; CypD double mutant, read-out: IC50^CypDK11E/R124A) | inhibition potency improvement compared to wild-type CypD (CypD [3]) | IC50 (CypD R124A) | IC50 (CypD K118E) | reduction in CypD potency (CypD [1]; on inserting an amine with a net positive charge) | IC50 (CypD [1]; wild-type CypD) | inhibition of cyclophilins tested (in words) (cyclophilins) |
| --- | --- | --- | --- | --- | --- | --- | --- | --- | --- | --- | --- | --- | --- |
| did not potently inhibit | CCOC(=O)CC(CC(=O)OCC)c1ccc(-c2ccc(C[C@H]3NC(=O)[C@@]4(Cc5ccccc5)CCCN(C4)C(=O)/C=C/C(=O)NCC[C@H](C(=O)NCCNC(=O)CCCCCN4\C(=C/C=C/C=C/C5=[N+](C)c6ccccc6C5(C)C)C(C)(C)c5ccccc54)NC(=O)Cc4ccccc4CNC3=O)cc2)cc1 [*B53-Et-Cy5] | hydrolyzed to their active dicarboxylate forms | good mitochondrial localization | Strong mammalian cell permeability and mitochondrial localization | – | – | – | – | – | – | – | – | – |
| – | NCCCc1ccc(-c2ccc(C[C@@H]3NC(=O)[C@]4(Cc5ccccc5)CCCN(C4)C(=O)/C=C/C(=O)NCC[C@@H](C(=O)NCCOCCN)NC(=O)Cc4ccccc4CNC3=O)cc2)cc1 [Compound B32] | – | – | – | at least 13 fold | 100 fold | 60 nM | 5- to 6 fold | 700 nM | 1100 nM | > 1,000 fold | 6000 nM | overall poor potency for each cyclophilin |
